# Measurements from patent EP0363589A2, “Somatostatin analogues” (SYNTEX (U.S.A.) INC., priority 1988, dated 1990).
# What was measured:
# growth hormone = experiment: Nembutal-induced growth hormone assay; assay type: in vivo, male rats; conditions: derived from the growth hormone and insulin assays in rats
# Method: After several days of acclimatization, male rats were weight-grouped and used on the succeeding one to three days. The rats were fasted the day prior to use. Each test rat was given an intramuscular (IM) injection of test compound or vehicle (0.1 % BSA-saline) into the right rear leg.
# Immediately following the IM injection, a subcutaneous injection of Nembutal (60 mg/kg) was given. Thirteen minutes after Nembutal administration, each rat was exposed to 2 minutes of ether anesthesia followed by the collection of a 1 ml blood sample via the ocular orbit. Serum separator tubes were used to prepare serum from the blood samples. The serum samples were stored at -20°C until analysis by radioimmune assay. The mean percent inhibition of growth hormone was determined for the test compounds using the method as described in Examples 4 and 5 and the EDso derived.
# [1] = tested on: insulin-induced glucagon release; experiment: Insulin-induced glucagon assay; assay type: in vivo; conditions: derived from the glucagon and insulin assays in rats
# Method: After several days of acclimatization, rats were weigh-grouped and used on the succeeding one to three days. The rats were injected subcutaneously with 40 mg/kg pentobarbitol(Nembutal). Approximately 30 minutes after injection, the jugular and the hepatic portal veins were exposed and an injection of 0.1% bovine serum albumin (BSA)-saline vehicle or 1 IU/1 ml/kg porcine insulin in the same vehicle was administered into the jugular vein. At precisely 15 minutes after the intravenous (i.v.)injection a 1 ml blood sample was collected from the hepatic portal vein and the rat sacrificed with C02.
# The blood sample was collected into a syringe containing 0.70 mg Na-EDTA and 0.1 mg Aprotinin, a commercially available protease inhibitor, in 0.1 ml 0.9% saline. The blood sample was mixed in the syringe and transferred to a plastic microcontainer serum-separator tube and held in the dark on ice. Plasma was harvested within 6 hours by centrifugation and stored at -20°C. The test material was administered intramuscularly to the animal immediately prior to the i.v. injection of insulin. Plasma samples were analyzed for levels of glucagon using a commercially available radioimmuneassay kit for animal glucagon (Cambridge Medical Technology). […]
substance,measurement,setting,value
Sandostatin,Relative selectivities for growth hormone/insulin,growth hormone,103
same,Relative selectivities for glucagon/insulin,[1],11
